The source of these data is patent US20210277009A1, “PRMT5 INHIBITORS” (Merck Sharp & Dohme Corp., priority 2018, published 2021).

Test [1] deals with symmetric dimethylation of arginine (SDMA) of PRMT5 substrates in MCF-7 cells. In words: PRMT5 Cell Target Engagement (TE) Assay. It counts as cell-based. The following applies: Homo sapiens, MCF7, 72 h, treated for 3 days, nuclear SDMA by high content imaging, top concentration 10000 nM. An excerpt: The PRMT5 TE assay is a biomarker assay for identifying compounds that inhibit symmetric dimethylation of arginine (SDMA) of PRMT5 substrates. The following substrates have been reported for PRMT5: histone H2A and H4 R3, Histone H3 R2, Histone H3 R8, spliceosome Sm proteins, ribosomal protein RPS10, p53, FEN1, nudeoplasmin, nucleolin, EGFR and EBNA. The assay will focus on detecting symmetrically dimethylated nuclear proteins using high content imaging technology. Detection of the expression of symmetrically dimethylated nuclear proteins is through a mixture of primary rabbit monoclonal antibodies to SDMA (CST 13222), which in turn recognized by an Alexafluor 488 dye-conjugated anti-rabbit IgG secondary antibody. The IN Cell Analyzer 2200 or Opera-Phenix measures nuclear Alexafluor 488 fluorescent dye intensity that is directly related to the level of expression of symmetrically dimethylated nuclear proteins at the single cell level. Nuclear AF488 dye intensities are compared to the mean value for DMSO treated cells (MIN) to report percent of inhibition for each compound-treated well.
In this assay, the cell potency (EC50) of each compound was determined from a ten point (1:3 serial dilution; top compound concentration of 10000 nM) titration curve using the following outlined procedure. Each well of a BD falcon collagen coated black/clear bottom 384-well plate was seeded with 4000 MCF-7 cells in 30 μl media and allowed to attach for 5 h. Media is ATCC-formulated Eagle's Minimum Essential Medium, Catalog No. 30-2003. To make the complete growth medium, the following components were added to the base medium: 0.01 mg/ml human recombinant insulin; fetal bovine serum to a final concentration of 10%. Additional 30 μl of media containing 2× compounds were added to each well. Cells were treated for 3 days in 37° C. CO2 incubator. On day 3, cells were fixed with Cytofix, permeablized with 0.4% Triton-X-100/Cytofix, and washed with D-PBS without Ca/Mg. Cells were blocked with Licor Odessey blocking reagent for 1 h at room temperature, followed by incubation with anti-SDMA (1:1000) antibody at 4° C. overnight. 1° antibody was removed, followed by three washings with DPBS without Ca/Mg and 0.05% Tween20. Hoechst (5 μg/ml), Cell Mask deep stain (1:2000) and Alexa488-conjugated goat anti-rabbit IgG (2 μg/mL) was added for 1 hour at room temperature. A final washing step (three washes) was performed before sealing plate for imaging on In Cell Analyzer 2200 or Opera-Phenix. Images from analyzer were uploaded to Columbus (at WP or BOS) for image analysis. IC50 values were determined by 4 parameters robust fit of percent fluorescence units vs. (Logic) compound concentrations.

The target in test [2] is T1, PRMT5-MEP50 enzyme complex (Homo sapiens, UniProt O14744).
T1 construct: 1.25 nM of Full-length (FL)-PRMT5-MEP50 enzyme complex; made in house; host or cells: baculovirus-transfected Sf21 cells
T1 sequence (O14744 whole entry): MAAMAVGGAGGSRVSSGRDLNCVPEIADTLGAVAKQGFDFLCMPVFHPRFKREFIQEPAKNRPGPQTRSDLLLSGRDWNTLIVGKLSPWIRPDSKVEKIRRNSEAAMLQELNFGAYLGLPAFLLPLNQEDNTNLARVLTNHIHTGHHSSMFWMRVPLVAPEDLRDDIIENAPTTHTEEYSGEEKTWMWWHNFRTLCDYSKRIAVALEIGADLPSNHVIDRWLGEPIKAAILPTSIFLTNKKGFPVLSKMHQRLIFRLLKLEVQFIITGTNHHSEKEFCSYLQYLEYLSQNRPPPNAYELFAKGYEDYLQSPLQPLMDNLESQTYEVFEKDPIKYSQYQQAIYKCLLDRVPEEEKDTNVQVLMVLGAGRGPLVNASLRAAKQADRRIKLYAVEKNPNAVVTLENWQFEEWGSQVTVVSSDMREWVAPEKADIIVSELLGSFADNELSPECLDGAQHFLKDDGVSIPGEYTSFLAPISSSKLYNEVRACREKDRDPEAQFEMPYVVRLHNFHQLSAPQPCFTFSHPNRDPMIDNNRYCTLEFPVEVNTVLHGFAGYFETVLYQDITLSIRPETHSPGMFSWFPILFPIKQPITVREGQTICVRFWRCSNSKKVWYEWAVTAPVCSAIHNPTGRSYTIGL
T1 sequence (Q9BQA1 whole entry partner): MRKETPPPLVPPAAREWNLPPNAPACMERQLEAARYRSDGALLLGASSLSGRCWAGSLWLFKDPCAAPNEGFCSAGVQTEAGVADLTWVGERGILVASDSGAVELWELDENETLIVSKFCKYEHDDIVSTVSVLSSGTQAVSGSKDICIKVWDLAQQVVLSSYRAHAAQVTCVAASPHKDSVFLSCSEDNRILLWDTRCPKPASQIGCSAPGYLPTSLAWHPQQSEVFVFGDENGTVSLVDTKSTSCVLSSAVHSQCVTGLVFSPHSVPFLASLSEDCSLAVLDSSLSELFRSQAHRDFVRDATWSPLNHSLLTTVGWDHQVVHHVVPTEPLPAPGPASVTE
In words: PRMT5-MEP50 Enzyme Methylation Assay. Type of test: biochemical. As for the experimental part: PRMT5-MEP50 biochemical assay is a direct measurement of the methylation activity of the enzyme complex on a short peptide substrate derived from the N-terminus of H4 histone. Methylation experiment is performed with recombinant PRMT5-MEP50 protein complex. The assessment of inhibitory effect of small molecules is measured by tire effectiveness of the compounds to inhibit tins reaction (EC50).
In this assay, the potency (EC50) of each compound was determined from a twenty-point (1:2 serial dilution; top compound concentration of 100000 nM) titration curve using the following outlined procedure. To each well of a white ProxiPlus 384 well-plate, 100 nL of compound (1% DMSO in final assay volume of 10 μL) was dispensed, followed by the addition of 8 μL of 1× assay buffer (50 mM Bicine pH 8.0, 1 mM DTT, 0.004% Tween20, 0.01% BSA) containing 1.25 nM of Full-length (FL)-PRMT5-MEP50 enzyme complex (recombinant proteins from baculovirus-transfected Sf21 cells: FL-PRMT5; MW=[…] and FL-MEP50; MW=38614) and 1 μL of 150 μM S-(5′-Adenosyl)-L-Methionine Chloride (SAM). Plates were sealed and placed in a 37° C. humidified chamber for a 60 minutes pre-incubation with compound. Subsequently, each reaction was initiated by the addition of 1 μL 1× assay buffer containing 750 nM biotinylated H4R3(Mel) peptide. The final reaction in each well of 10 μL consists of 1.0 nM PRMT5-MEP50, 75 nM biotinylated-peptide, and […] SAM. Methylation reactions were allowed to proceed for 150 minutes in a sealed plate at 37° C. Reactions were immediately quenched by the addition of 1 μL of 5% formic acid. Plates were then frozen and shipped to SAMDITM Tech Inc. to determine the percent conversion from H4R3(Mel) to H4R3(Me2). Dose-response curves were generated by plotting percent effect (% product conversion; Y-axis) vs. Log 10 compound concentrations (X-axis). EC50 values were determined by non-linear regression according to models for either sigmoidal (4 parameters) or biphasic (7 parameters) dose-response curves.

The mark [3] stands for this setting: single EC50 from 4 parameters single site sigmoidal model, or first EC50 of 7 parameters biphasic model, 1.0 nM PRMT5-MEP50, H4R3(Me1) peptide, SAM, read-out: Enzyme Methylation Assay (EC50 or EC50_1).
Setting [4] is: second EC50 of 7 parameters biphasic model, read-out: Enzyme Methylation Assay (EC50_2).

Counter-ions that a name gives are not always drawn. Like-named read-outs stand apart in the source and are kept apart here.

Turning to `C[C@]1(CCc2ccc3cc(Br)c(N)nc3c2)S[C@@H](n2ccc3c(N)ncnc32)[C@H](O)[C@@H]1O` [Example 30], the EC50 in test [1] stood at 0.5 nM; in test [2] (setting [3]), 0.3 nM.

`Nc1nc2cc(OC[C@H]3S[C@@H](n4ccc5c(N)ncnc54)[C@H](O)[C@@H]3O)ccc2cc1F` [Example 3, 7-[5-O-(2-amino-3-fluoroquinolin-7-yl)-4-thio-beta-D-ribofuranosyl]-7H-pyrrolo[2,3-d]pyrimidin-4-amine]: the EC50 was 596 nM in test [1], 902 nM in test [2] (setting [4]) and 6 nM in test [2] (setting [3]).

Take `Nc1nc2cc(CC[C@H]3S[C@@H](n4ccc5c(N)ncnc54)[C@H](O)[C@@H]3O)ccc2cc1Br` [Example 12, (2R,3S,4R,5R)-2-(2-(2amino-3bromoquinolin-7-yl)ethyl)-5-(4-amino-7H-pyrrolo[2,3-d]pyrimidin-7-yl)tetrahydrothiophene-3,4-diol]: the figures for the EC50 in test [1] and in test [2] (setting [3]) were 1.3 nM and 0.7 nM, respectively.

As for `Cc1nc(N)nc2c1ccn2[C@@H]1S[C@H](CCc2ccc3cc(Br)c(N)nc3c2)[C@@H](O)[C@H]1O` [Example 38, (2R,3S,4R,5R)-2-(2-(2-amino-3-bromoquinolin-7-yl)ethyl)-5-(2-amino-4-methyl-7H-pyrrolo[2,3-d]pyrimidin-7-yl)tetrahydrothiophene-3,4-diol], the EC50 in test [1] stood at 7.2 nM; in test [2] (setting [3]), 0.5 nM.

Take `Cc1ncnc2c1ccn2[C@@H]1S[C@@H](CCc2ccc3cc(F)c(N)nc3c2)[C@@H](O)[C@H]1O` [Example 23, (2S,3S,4R,5R)-2-[2-(2-amino-3-fluoroquinolin-7-yl)ethyl]-5-(4-methyl-7H-pyrrolo[2,3-d]pyrimidin-7-yl)tetrahydrothiophene-3,4-diol]: the values for the EC50 in test [1] and in test [2] (setting [3]) were 41.9 nM and 58.3 nM, respectively.

On to `CNc1ncnc2c1ccn2[C@@H]1S[C@H](CCc2ccc3cc(Br)c(N)nc3c2)[C@@H](O)[C@H]1O` [Example 36], for which the EC50 in test [1] amounted to 81.1 nM; in test [2] (setting [4]), 15.3 nM; in test [2] (setting [3]), 0.6 nM.

Take `Nc1ncnc2c1ccn2[C@@H]1S[C@H](COc2ccc3ccc(NCC4CC4)nc3c2)[C@@H](O)[C@H]1O` [Example 4, 7-(5-O-{2-[(cyclopropylmethyl)amino]quinolin-7-yl}-4-thio-beta-D-ribofuranosyl)-7H-pyrrolo[2,3-d]pyrimidin-4-amine]: the EC50 turned out to be 50.5 nM in test [1], 569 nM in test [2] (setting [4]) and 1.2 nM in test [2] (setting [3]).

For the molecule `Cc1ncnc2c1ccn2[C@@H]1S[C@H](CCc2ccc3cc(Br)c(N)nc3c2)[C@@H](O)[C@H]1O` [Example 18, (2R,3S,4R,5R)-2-(2-(2-amino-3-bromoquinolin-7-yl)ethyl)-5-(4-methyl-7H-pyrrolo[2,3-d]pyrimidin-7-yl)tetrahydrothiophene-3,4-diol], the values for the EC50 in test [1] and in test [2] (setting [3]) were 5 nM and 2.2 nM, respectively.

In the case of `Cc1ncnc2c1ccn2[C@@H]1S[C@](C)(CCc2ccc3cc(Br)c(N)nc3c2)[C@@H](O)[C@H]1O` [Example 32], the EC50 in test [1] was found to be 5.6 nM; in test [2] (setting [3]), 0.6 nM.

With `Nc1nc2cc(CC[C@@H]3S[C@@H](n4ccc5c(N)ncnc54)[C@H](O)[C@@H]3O)ccc2cc1Cl` [Example 42, (2S,3S,4R,5R)-2-(2-(2-amino-3-chloroquinolin-7-yl)ethyl)-5-(4-amino-7H-pyrrolo[2,3-d]pyrimidin-7-yl)tetrahydrothiophene-3,4-diol], the EC50 in test [1] came out at 2.4 nM; in test [2] (setting [3]), 0.8 nM.

With `Cc1ncnc2c1ccn2[C@@H]1S[C@@H](CCc2ccc3cc(C(F)(F)F)c(N)nc3c2)[C@@H](O)[C@H]1O` [Example 21, (2S,3S,4R,5R)-2-{2-[2-amino-3-(trifluoromethyl)quinolin-7-yl]ethyl}-5-(4-methyl-7H-pyrrolo[2,3-d]pyrmidin-7-yl)tetrahydrothiophene-3,4-diol], the EC50 in test [1] is at least 10000 nM; in test [2] (setting [3]), 7.4 nM.

In the case of `Nc1nc2cc(OC[C@H]3S[C@@H](n4ccc5c(N)ncnc54)[C@H](O)[C@@H]3O)ccc2cc1Br` [Example 1, (2R,3S,4R,5R)-2-(((2-amino-3-bromoquinolin-7-yl)oxy)methyl)-5-(4-amino-7H-pyrrolo[2,3-d]pyrimidin-7-yl)tetrahydrothiophene-3,4-diol], the EC50 in test [1] came out at 208 nM; in test [2] (setting [4]), 76.7 nM; in test [2] (setting [3]) it was 0.3 nM.

As to `Cc1ncnc2c1ccn2[C@@H]1S[C@@H](CCc2ccc3cc4c(nc3c2)NC(C)C4)[C@@H](O)[C@H]1O` (single isomer, unassigned) [Example 40, (2S,3S,4R,5R)-2-(2-((S or R)-2-methyl-2,3-dihydro-1H-pyrrolo[2,3-b]quinolin-7-yl)ethyl)-5-(4-methyl-7H-pyrrolo[2,3-d]pyrimidin-7-yl)tetrahydrothiophene-3,4-diol], the EC50 in test [2] (setting [3]) was 57.9 nM.

Regarding `Nc1ccc2ccc(CC[C@H]3S[C@@H](n4ccc5c(N)ncnc54)[C@H](O)[C@@H]3O)cc2n1` [Example 14, (2R,3R,4S,5R)-2-(4-amino-7H-pyrrolo[2,3-d]pyrimidin-7-yl)-5-(2-(2-aminoquinolin-7-yl)ethyl)tetrahydrothiophene-3,4-diol TFA salt], the EC50 was 0.7 nM in test [1] and 0.3 nM in test [2] (setting [3]).

As for `Cc1ncnc2c1ccn2[C@@H]1S[C@H](COc2ccc3ccc(NCC4CC4)nc3c2)[C@@H](O)[C@H]1O` [Example 9, (2R,3S,4R,5R)-2-(((2-((cyclopropylmethyl)amino)quinolin-7-yl)oxy)methyl)-5-(4-methyl-7H-pyrrolo[2,3-d]pyrimidin-7-yl)tetrahydrothiophene-3,4-diol], the figures for the EC50 in test [1], in test [2] (setting [4]) and in test [2] (setting [3]) were 58.4 nM, 2540 nM and 14 nM, respectively.

With `Cc1ncnc2c1ccn2[C@@H]1S[C@@H](CCc2ccc3cc(Br)c(N)nc3c2)[C@@H](O)[C@H]1O` [Example 19], the EC50 in test [1] was determined as 8.4 nM; in test [2] (setting [4]), 50.1 nM; in test [2] (setting [3]) it was 0.4 nM.

On to `CC1(COc2ccc3cc(Br)c(N)nc3c2)SC(n2ccc3c(N)ncnc32)C(O)C1O` [Example 7, (2R,3R,4R,5R)-2-(((2-amino-3-bromoquinolin-7-yl)oxy)methyl-5-(4-amino-7H-pyrrolo[2,3-d]pyrimidin-7-yl)-2-methyltetrahydrothiophene-3,4-diol], for which the figures for the EC50 in test [1], in test [2] (setting [4]) and in test [2] (setting [3]) were 122 nM, 531 nM and 2.5 nM, respectively.
